The source of these data is patent publication US8273771B2, “Ischemic disorder or disease inhibitors” (Pronas Pharma AB, priority 2007, dated 2012).

SMILES strings stand for the structures.

Assay [1] relates to rats with induced SAH. Briefly: Neurological scoring in rat subarachnoid hemorrhage model. It is filed as in vivo. The following applies: established scoring system, SAH+vehicle score 1, sham score 0. The text has this: Subarachnoid hemorrhage was induced by a model originally devised by Svendgaard et al and carefully described by Prunell et al (2003). Male Sprague-Dawley rats (350-400 g) were anaesthetized using 5% halothane (Halocarbon Laboratories, River Edge, N.J.) in N2O/O2 (30:70). The rat was intubated and artificially ventilated with inhalation of 0.5-1.5% halothane in N2O/O2 (70:30) during the surgical procedure. The depth of anaesthesia was carefully monitored and the respiration checked by regularly withdrawing arterial blood samples for blood gas analysis (Radiometer, Copenhagen, Denmark). An electric temperature probe was inserted into the rectum of the rat to record the temperature, which was maintained at 37° C. An arterial catheter to measure blood pressure was placed in the tail artery and a catheter to monitor intracranial pressure (ICP) was placed in the subarachnoid space under the subocciptal membrane. At either side of the skull, 3 mm from the midline and 4 mm anteriorly from the bregma, holes were drilled through the skull bone down to dura mater (without perforation) allowing the placement of two laser-Doppler flow probes to measure cortical CBF. […]
During the period, the rat was monitored regularly, and if showing severe distress the animal was prematurely killed. […]

Assay [2] relates to AT2 receptor mRNA. Briefly: Real-time PCR of receptor mRNA in cerebral arteries after SAH. The format is in vivo, rat. The following applies: MCA, BA and circle of Willis grouped. In general terms: In qPCR the cycle at which signal appears reflects the starting amount.
The subject of assay [3] is ETA receptor mRNA. Described as above. The format is in vivo, rat. The following applies: MCA, BA and circle of Willis grouped. As to the method:
To quantify mRNA for the ETA, ETB and 5-HT1B receptors, RT-PCR and real-time detection monitoring the PCR products was employed. Total cellular RNA was extracted from BA, MCA and circle of Willis using the Trizol RNA isolation kit (Invitrogen, USA) following the suppliers instructions. Briefly, the arteries were homogenized in 1 ml of Trizol (Invitrogen, Sweden) by using a TissueLyser (VWR, Sweden). Subsequently 200 μl of chloroform was added and the samples were incubated in room temperature for 3 min, followed by centrifugation at 15000 g for 15 min at 4° C. The supernatant was collected and the organic phase discarded. 200 μl of chloroform was again added to remove all traces of phenol and the samples were centrifuged at 15000 g for 15 at 4° C. The aqueous supernatant was again collected and to precipitate the RNA equal amount of isopropanol was added and the samples incubated overnight at −20° C.
Subsequently, the RNA was centrifuged at 15000 g for 20 min at 4° C. […] Total RNA was determined using a GeneQuant Pro spectrophotometer measuring absorbance at 260/280 (Amersham Pharmacia Biotech, Uppsala, Sweden).
Reverse transcription of total RNA to cDNA was carried out using the Gene Amp RNA kit (Perkin-Elmer Applied Biosystems, USA) in a Perkin-Elmer 2400 PCR machine at 42° C. for 90 min and then 72° C. for 10 min. The real-time quantitative PCR was performed with the GeneAmp SYBR Green PCR kit (PE Applied Biosystems) in a Perkin-Elmer real-time PCR machine (GeneAmp 5700 sequence detection system). […] The system automatically monitors the binding of a fluorescent dye to double-strand DNA by real-time detection of the fluorescence during each cycle of PCR amplification. […]
PCR experiments were performed on BA, MCA and circle of Willis from SAH, SAH treated with raf inhibitor or PKC inhibitor and sham operated rats. Data were analysed with the comparative cycle threshold (CT) method (28). The CT values of EF-1 mRNA were used as a reference to quantify the relative amount of ETA, ETB and 5-HT1B mRNA. […]

The test system of assay [4] is AT1 receptor mRNA. Described as above. It is filed as in vivo, rat. The following applies: MCA, BA and circle of Willis grouped; SAH rats.

`Cn1cc(C2=C(c3cn(CCCN)c4ccccc34)C(=O)NC2=O)c2ccccc21` [RO-31-7549] displayed a neurological score in assay [1] of 0.

On to `Oc1cc(-c2nc(-c3ccccc3)[nH]c2-c2ccncc2)ccc1Cl` [SB386023-b], for which the “expression of AT2 receptor mRNA, difference between sham, SAH and treated SAH” value in assay [2] is “no difference”. Moreover, the “expression of ETA receptor mRNA, difference between sham, SAH and treated SAH” value in assay [3] is “no difference”. Further, the “enhanced expression of AT1 receptor mRNA” value in assay [4] is “inhibited”. Moreover, in assay [1], the neurological score was 0.
